Source: patent publication US12139492B2 (Endotarget Inc., priority 2021, dated 2024)
Like-named read-outs stand apart in the source and are kept apart here.

Legend:
Mino cells = test: Antiproliferative effect, MTS cell viability assay, Mino cells; assay type: cell-based; conditions: Homo sapiens, MINO, Mino mantle cell lymphoma cells; read-out: IC50 (anti-proliferation) Mino cells
Procedure, shortened: (§1)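 Tested at six concentrations (0 to 10 μM in tenfold steps), 72 h; viability by MTS, A490.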

JeKo-1 cells = test: Antiproliferative effect, MTS cell viability assay, JeKo-1 cells; assay type: cell-based; conditions: Homo sapiens; JeKo-1 mantle cell lymphoma cells; read-out: IC50 (anti-proliferation) JeKO-1 cells
Procedure, shortened: as §1

BTK = BTK (Homo sapiens, UniProt Q06187); test: Degradation of BTK protein in Namalwa cells (Western blot; DC50, Dmax); conditions: for DC50: cell line not given
Sequence of BTK (Q06187 whole entry): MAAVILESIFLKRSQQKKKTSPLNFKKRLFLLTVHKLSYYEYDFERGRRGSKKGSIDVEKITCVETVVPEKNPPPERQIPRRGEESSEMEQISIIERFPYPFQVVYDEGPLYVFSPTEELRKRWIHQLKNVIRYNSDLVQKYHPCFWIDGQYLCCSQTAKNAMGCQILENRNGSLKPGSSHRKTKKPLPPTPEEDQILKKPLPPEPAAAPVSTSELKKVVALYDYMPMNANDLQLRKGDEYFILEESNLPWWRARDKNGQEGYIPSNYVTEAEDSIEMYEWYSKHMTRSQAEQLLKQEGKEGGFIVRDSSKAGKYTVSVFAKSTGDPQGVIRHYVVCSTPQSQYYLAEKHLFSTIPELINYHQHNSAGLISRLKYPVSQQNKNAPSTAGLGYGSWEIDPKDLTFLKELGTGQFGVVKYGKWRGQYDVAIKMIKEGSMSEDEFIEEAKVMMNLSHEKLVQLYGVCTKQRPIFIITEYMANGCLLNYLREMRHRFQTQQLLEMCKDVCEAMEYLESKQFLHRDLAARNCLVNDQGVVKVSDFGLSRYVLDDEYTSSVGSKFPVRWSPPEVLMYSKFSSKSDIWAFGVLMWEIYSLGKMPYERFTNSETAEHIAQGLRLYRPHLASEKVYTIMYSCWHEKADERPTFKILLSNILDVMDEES

[1] = read-out: DC50 (BTK degradation), concentration giving 50% reduction of BTK expression level
[2] = read-out: Dmax (BTK degradation)

Structure (SMILES) | Dmax (BTK) [%] | DC50 (BTK; BTK degradation) [nM] | DC50 (BTK; [1]) [nM] | Dmax (BTK; [2]) [%] | IC50 (Mino cells) [nM] | IC50 (JeKo-1 cells) [nM]
NC(=O)c1c(-c2ccc(Oc3ccccc3)cc2)nn2c1NCCC2C1CCN(C(=O)N2CCN(CCN3CCN(c4ccc5c(c4)C(=O)N(C4CCC(=O)NC4=O)C5=O)CC3)CC2)CC1 (stereo not shown) [Compound 281, 7-(1-(4-(2-(4-(2-(2,6-dioxopiperidin-3-yl)-1,3-dioxoisoindolin-5-yl)piperazin-1-yl)ethyl)piperazine-1-carbonyl)piperidin-4-yl)-2-(4-phenoxyphenyl)-4,5,6,7-tetrahydropyrazolo[1,5-a]pyrimidine-3-carboxamide] | > 90 | 10 to 50 |  |  | 1000 to 10000 | 1000 to 10000
NC(=O)c1c(-c2ccc(Oc3ccccc3)cc2)nn2c1NCCC2C1CCN(CC2CCN(C(=O)N3CCN(CC4CCN(c5ccc6c(c5)CN(C5CCC(=O)NC5=O)C6=O)CC4)CC3)CC2)CC1 (stereo not shown) [Compound 372, 7-(1-((1-(4-((1-(2-(2,6-dioxopiperidin-3-yl)-1-oxoisoindolin-5-yl)piperidin-4-yl)methyl)piperazine-1-carbonyl)piperidin-4-yl)methyl)piperidin-4-yl)-2-(4-phenoxyphenyl)-4,5,6,7-tetrahydropyrazolo[1,5-a]pyrimidine-3-carboxamide] | > 90 | 10 to 50 |  |  | 1000 to 10000 | < 1000
Nc1ncnc2c1c(-c1ccc(Oc3ccccc3)cc1)nn2C1CCN(CC2CCN(CCCN3CCC(c4ccc5c(c4)CN(C4CCC(=O)NC4=O)C5=O)CC3)CC2)CC1 (stereo not shown) [Compound 210, 3-(5-(1-(3-(4-((4-(4-amino-3-(4-phenoxyphenyl)-1H-pyrazolo[3,4-d]pyrimidin-1-yl)piperidin-1-yl)methyl)piperidin-1-yl)propyl)piperidin-4-yl)-1-oxoisoindolin-2-yl)piperidine-2,6-dione] | > 75 | 10 to 50 |  |  | 1000 to 10000 | 1000 to 10000
NC(=O)c1c(-c2ccc(Oc3ccccc3)cc2)nn2c1NCCC2C1CCN(C(=O)N2CCN(CC3CCN(c4ccc5c(c4)CN(C4CCC(=O)NC4=O)C5=O)CC3)CC2)CC1 (stereo not shown) [Compound 274, 7-(1-(4-((1-(2-(2,6-dioxopiperidin-3-yl)-1-oxoisoindolin-5-yl)piperidin-4-yl)methyl)piperazine-1-carbonyl)piperidin-4-yl)-2-(4-phenoxyphenyl)-4,5,6,7-tetrahydropyrazolo[1,5-a]pyrimidine-3-carboxamide] | > 90 | < 10 |  |  | < 1000 | < 1000
NC(=O)c1c(-c2ccc(Oc3ccccc3)cc2)nn2c1NCCC2C1CCN(C(=O)N2CCN(CCC3CCN(c4ccc5c(c4)C(=O)N(C4CCC(=O)NC4=O)C5=O)CC3)CC2)CC1 (stereo not shown) [Compound 283, 7-(1-(4-(2-(1-(2-(2,6-dioxopiperidin-3-yl)-1,3-dioxoisoindolin-5-yl)piperidin-4-yl)ethyl)piperazine-1-carbonyl)piperidin-4-yl)-2-(4-phenoxyphenyl)-4,5,6,7-tetrahydropyrazolo[1,5-a]pyrimidine-3-carboxamide] | > 75 | 10 to 50 |  |  | 1000 to 10000 | > 10000
NC(=O)c1c(-c2ccc(Oc3ccccc3)cc2)nn2c1NCC[C@H]2C1CCN(C(=O)N2CCN(CCN3CCC(c4ccc5c(c4)CN(C4CCC(=O)NC4=O)C5=O)CC3)CC2)CC1 (stereo partly drawn) [Compound 304, (7S)-7-(1-(4-(2-(4-(2-(2,6-dioxopiperidin-3-yl)-1-oxoisoindolin-5-yl)piperidin-1-yl)ethyl)piperazine-1-carbonyl)piperidin-4-yl)-2-(4-phenoxyphenyl)-4,5,6,7-tetrahydropyrazolo[1,5-a]pyrimidine-3-carboxamide] | > 75 | 10 to 50 |  |  | 1000 to 10000 | 1000 to 10000
Nc1ncnc2c1c(-c1ccc(Oc3ccccc3)cc1)nn2C1CCN(C2CCN(C(=O)N3CCN(CC4CCN(c5ccc6c(c5)C(=O)N(C5CCC(=O)NC5=O)C6=O)CC4)CC3)CC2)CC1 (stereo not shown) [Compound 241, 5-(4-((4-(4-(4-amino-3-(4-phenoxyphenyl)-1H-pyrazolo[3,4-d]pyrimidin-1-yl)-[1,4′-bipiperidine]-1′-carbonyl)piperazin-1-yl)methyl)piperidin-1-yl)-2-(2,6-dioxopiperidin-3-yl)isoindoline-1,3-dione] | > 90 | 10 to 50 |  |  | 1000 to 10000 | 1000 to 10000
Nc1ncnc2c1c(-c1ccc(Oc3ccccc3)cc1)nn2C1CCN(C2CCN(C(=O)N3CCN(CCCN4CCC(c5ccc6c(c5)C(=O)N(C5CCC(=O)NC5=O)C6=O)CC4)CC3)CC2)CC1 (stereo not shown) [Compound 261, 5-(1-(3-(4-(4-(4-amino-3-(4-phenoxyphenyl)-1H-pyrazolo[3,4-d]pyrimidin-1-yl)-[1,4′-bipiperidine]-1′-carbonyl)piperazin-1-yl)propyl)piperidin-4-yl)-2-(2,6-dioxopiperidin-3-yl)isoindoline-1,3-dione] | > 90 | 10 to 50 |  |  | > 10000 | 1000 to 10000
NC(=O)c1c(-c2ccc(Oc3ccccc3)cc2)nn2c1NCCC2C1CCN(C(=O)N2CCC(CCN3CCC(c4ccc5c(c4)CN(C4CCC(=O)NC4=O)C5=O)CC3)CC2)CC1 (stereo not shown) [Compound 286, 7-(1-(4-(2-(4-(2-(2,6-dioxopiperidin-3-yl)-1-oxoisoindolin-5-yl)piperidin-1-yl)ethyl)piperidine-1-carbonyl)piperidin-4-yl)-2-(4-phenoxyphenyl)-4,5,6,7-tetrahydropyrazolo[1,5-a]pyrimidine-3-carboxamide] | > 75 | > 50 |  |  | 1000 to 10000 | 1000 to 10000

Further lines, with some results ahead:

Dmax (BTK) [%] | DC50 (BTK; BTK degradation) [nM] | DC50 (BTK; [1]) [nM] | Dmax (BTK; [2]) [%] | Structure (SMILES) | IC50 (Mino cells) [nM] | IC50 (JeKo-1 cells) [nM]
> 75 | > 50 |  |  | NC(=O)c1c(-c2ccc(Oc3ccccc3)cc2)nn2c1NCC[C@H]2C1CCN(C2CCN(C(=O)N3CCN(Cc4ccc5c(c4)C(=O)N(C4CCC(=O)NC4=O)C5=O)CC3)CC2)CC1 (stereo partly drawn) [Compound 379, (7S)-7-(1′-(4-((2-(2,6-dioxopiperidin-3-yl)-1,3-dioxoisoindolin-5-yl)methyl)piperazine-1-carbonyl)-[1,4′-bipiperidin]-4-yl)-2-(4-phenoxyphenyl)-4,5,6,7-tetrahydropyrazolo[1,5-a]pyrimidine-3-carboxamide] | > 10000 | > 10000
 |  | 10 to 50 | > 75 | NC1=NC=NC2C1C(c1ccc(Oc3ccccc3)cc1)=NN2[C@@H]1CCCN(C(=O)N2CCN(C3CN(c4ccc5c(c4)C(=O)N(C4CCC(=O)NC4=O)C5=O)C3)CC2)C1 (stereo partly drawn) [Compound 505, 5-(3-(4-((3R)-3-(4-amino-3-(4-phenoxyphenyl)-3a,7a-dihydro-1H-pyrazolo[3,4-d]pyrimidin-1-yl)piperidine-1-carbonyl)piperazin-1-yl)azetidin-1-yl)-2-(2,6-dioxopiperidin-3-yl)isoindoline-1,3-dione] | < 1000 | < 1000
 |  | > 50 | > 90 | Nc1ncnc2c1c(-c1ccc(Oc3ccccc3)cc1)nn2C1CCN(C[C@H]2CCN(CC3CN(CC4CN(c5ccc6c(c5)C(=O)N(C5CCC(=O)NC5=O)C6=O)C4)C3)C2)CC1 (stereo partly drawn) [Compound 427a, 5-(3-((3-(((R)-3-((4-(4-amino-3-(4-phenoxyphenyl)-1H-pyrazolo[3,4-d]pyrimidin-1-yl)piperidin-1-yl)methyl)pyrrolidin-1-yl)methyl)azetidin-1-yl)methyl)azetidin-1-yl)-2-(2,6-dioxopiperidin-3-yl)isoindoline-1,3-dione] | 1000 to 10000 | 1000 to 10000
 |  | > 50 | > 50 | Nc1ncnc2c1c(-c1ccc(Oc3ccccc3)cc1)nn2C1CCN(CCC#Cc2ccc(N3CCC(=O)NC3=O)cc2)CC1 [Compound 540, 1-(4-(4-(4-(4-amino-3-(4-phenoxyphenyl)-1H-pyrazolo[3,4-d]pyrimidin-1-yl)piperidin-1-yl)but-1-yn-1-yl)phenyl)dihydropyrimidine-2,4(1H,3H)-dione] | > 10000 | > 10000
 |  | 10 to 50 | > 90 | Nc1ncnc2c1c(-c1ccc(Oc3ccccc3)cc1)nn2C1CCN(C2CCN(CC3CN(c4ccc5c(c4)CN(C4CCC(=O)NC4=O)C5=O)C3)CC2)CC1 (stereo not shown) [Compound 434, 3-(5-(3-((4-(4-amino-3-(4-phenoxyphenyl)-1H-pyrazolo[3,4-d]pyrimidin-1-yl)-[1,4′-bipiperidin]-1′-yl)methyl)azetidin-1-yl)-1-oxoisoindolin-2-yl)piperidine-2,6-dione] | < 1000 | 1000 to 10000
 |  | 10 to 50 | > 90 | Nc1ncnc2c1c(-c1ccc(Oc3ccccc3)cc1)nn2C1CCN(CC2CCN(CC3CN(CC4CN(c5ccc6c(c5)CN(C5CCC(=O)NC5=O)C6=O)C4)C3)C2)CC1 (stereo not shown) [Compound 428, 3-(5-(3-((3-((3-((4-(4-amino-3-(4-phenoxyphenyl)-1H-pyrazolo[3,4-d]pyrimidin-1-yl)piperidin-1-yl)methyl)pyrrolidin-1-yl)methyl)azetidin-1-yl)methyl)azetidin-1-yl)-1-oxoisoindolin-2-yl)piperidine-2,6-dione] | 1000 to 10000 | 1000 to 10000
 |  | < 10 | > 90 | Nc1ncnc2c1c(-c1ccc(Oc3ccccc3)cc1)nn2[C@@H]1CCCN(C2CN(C(=O)N3CCC(N4CCN(c5ccc6c(c5)CN(C5CCC(=O)NC5=O)C6=O)CC4)CC3)C2)C1 (stereo partly drawn) [Compound 482, 3-(5-(4-(1-(3-((R)-3-(4-amino-3-(4-phenoxyphenyl)-1H-pyrazolo[3,4-d]pyrimidin-1-yl)piperidin-1-yl)azetidine-1-carbonyl)piperidin-4-yl)piperazin-1-yl)-1-oxoisoindolin-2-yl)piperidine-2,6-dione] | < 1000 | 1000 to 10000
